Laboratory results: patent US7070796B1 (Debiopharm S.A., priority 1999, dated 2006)

Assays:
[1] = aqueous medium
Source text: Some of these tests will appear in the examples as comparatives.

[2] = Solvent optimization above 10 mg/ml, visual observation, with temperature variations; type: physicochemical; conditions: for visual aspect of mixture: aqueous, ad 25 ml
Method: First it has been carried to 60° C. and maintained at this temperature under agitation during one hour. […] It was then submitted to three successive freezing with, in the interval, return to the room temperature. This solution has then staid seven days in a fridge.

[3] = tested on: Staphylococcus aureus; experiment: Efficacy of the antimicrobial conservation (European Pharmacopea 5.1.3); type: cell-based; conditions: oxaliplatinum in solution, test of artificial contamination recommended by the Pharmacopea
Method: Under these conditions, the obtained results have shown a definite reduction of the staphylococcus aureus population with a Δlog of 5,99 after 24 hours.

Compound | effect of the substance, mixed with or solubilised in water, on oxaliplatinum solubility [1] | visual aspect of mixture ([2]; 400 mg oxaliplatinum and 12,5 g maltitol) | visual aspect of solution ([2]; 337,5 mg oxaliplatinum and 5 g maltitol ad 25 ml, 60° C. under agitation during one hour) | crystal formation ([2]; 337,5 mg oxaliplatinum and 5 g maltitol ad 25 ml, three successive freezing, then seven days in a fridge, return to room temperature) | visual aspect of mixture ([2]; 337,5 mg oxaliplatinum and 5 g maltitol) | dissolution in words ([2]; 379,7 mg oxaliplatinum in 25 ml glycerol to 85%) | antimicrobial efficacy in words [3]
Tween 20 | ineffective | – | – | – | – | – | –
N[C@@H]1CCCC[C@H]1N.O=C([O-])C(=O)[O-].[Pt+2] [oxaliplatinum] | – | residues appear | clear and colorless | no crystal has been observed | clear | partly dissolve | antimicrobial efficacy
